Assay results: article PMC3199744, “Preformulation and stability in biological fluids of the retrocyclin RC-101, a potential anti-HIV topical microbicide” (AIDS Research and Therapy, 2011)

Assays:
[1] = Stability of RC-101 in 3 M urea; type: physicochemical
Experimental: At each time point, the sample was removed from the incubation chamber and centrifuged for 10 min at 10,000 rpm, at 4 ± C to separate the supernatant from cell pellet. Supernatant (100 μL) was added to microcentrifuge filters Ultracel YM-10 Microcon MWCO 10,000 (Millipore Corporation, Bedford, MA), which were pre-washed with Milli Q water to eliminate any trace of propylene glycol from the filters. Samples were centrifuged twice for 15 min at 8,500 rpm, at 4 ± C. The filtrate was collected and frozen at -80 ± C until further analysis. A solution of 3 M urea was added to the cell pellet (1:1 w/w) obtained from the first centrifugation, to lyse the cells. This mixture was vortexed three times for 30 sec, and then centrifuged for 10 min at 10,000 rpm, at 4 ± C. The supernatant obtained from the cell lysate was then added to microcentrifuge filters Ultracel YM-10 Microcon MWCO 10,000 pre-washed with Milli Q water. Samples were centrifuged twice for 15 min at 8,500 rpm, at 4 ± C. The filtrate was collected and frozen at -80 ± C until analysis. […] Samples were thawed and added to PepCleanTM C-18 spin columns (Pierce Biotechnology Inc., Rockford, IL) for desalting, after column conditioning with acetonitrile:water (50:50) and equilibration with 0.1% trifluoroacetic acid. […]

[2] = Stability in HVF positive for bacterial vaginosis (HVF BV+), detection by LC-MS/MS; details: for detection of RC-101 by LC-MS/MS: nanoLC-SRM MS, qualitative
Experimental: After removing the Instead Softcup®, a speculum examination was performed. Swab specimens of the endocervix were obtained using the Mini-tip Culturette TN collection system (Becton Dickinson, Sparks, MD) according to the manufacturer's guidelines. C. trachomatis and N. gonorrhoeae were detected with an amplified DNA assay based on the simultaneous amplification and detection of target DNA amplification primers and a fluorescent label detector probe. Bacterial vaginosis was detected by Gram stain and assessed by the Nugent score, where score results between 0 and 3 indicate a normal flora, between 4 and 6 indicates an intermediate state, and between 7 and 10 indicates bacterial vaginosis.
The HVF from the Instead Softcup® was removed by centrifugation of the conical tube for 10 min at 5,000 rpm. […] HVF was then removed from the cup and the pH of each HVF sample was measured with Fisher Alkacid pH filter strips (Fisher Scientific). All samples collected on a specific day were pooled to be used for the research studies. If the pH of the individual samples was higher than 5, the sample was not included in the pool but it was stored at -80°C for separate analysis. If the sample contained blood, it was immediately discarded. Samples were prepared as described in Table 1. […] Because of its high viscosity, HVF was measured by weight and not by volume. All solutions were prepared fresh and incubated with HVF (or water) at 37°C for specific periods of time (0, 2, 6, 12, 24, 48, and 72 h), unless specified otherwise. At each time point, the samples were centrifuged at 10,000 rpm for 10 min to separate the supernatant from the epithelial cells as described in the cell processing section. Both parts (supernatant and cells) were stored at -80 ± C until analyzed by LC-MS/MS. To evaluate the influence of freezing the fluid prior to the analysis, the last pool of HVF was divided into two samples: one used fresh (at the time of collection), and the other one stored at -80°C for a 3-month period. After that time period, HVF was thawed and processed for blank and RC-101 solution only, as described in Table 1. HVF samples collected with a high pH value indicative of BV were stored at -80°C as previously mentioned. After confirmation of BV on those fluid samples by Gram stain score, the fluid samples (HVF BV^+) were thawed, pooled, and processed as described in Table 1.
At each time point, the sample was removed from the incubation chamber and centrifuged for 10 min at 10,000 rpm, at 4 ± C to separate the supernatant from cell pellet. Supernatant (100 μL) was added to microcentrifuge filters Ultracel YM-10 Microcon MWCO 10,000 (Millipore Corporation, Bedford, MA), which were pre-washed with Milli Q water to eliminate any trace of propylene glycol from the filters. Samples were centrifuged twice for 15 min at 8,500 rpm, at 4 ± C. The filtrate was collected and frozen at -80 ± C until further analysis. A solution of 3 M urea was added to the cell pellet (1:1 w/w) obtained from the first centrifugation, to lyse the cells. This mixture was vortexed three times for 30 sec, and then centrifuged for 10 min at 10,000 rpm, at 4 ± C. The supernatant obtained from the cell lysate was then added to microcentrifuge filters Ultracel YM-10 Microcon MWCO 10,000 pre-washed with Milli Q water. Samples were centrifuged twice for 15 min at 8,500 rpm, at 4 ± C. The filtrate was collected and frozen at -80 ± C until analysis. […] Samples were thawed and added to PepCleanTM C-18 spin columns (Pierce Biotechnology Inc., Rockford, IL) for desalting, after column conditioning with acetonitrile:water (50:50) and equilibration with 0.1% trifluoroacetic acid. The column was washed three times with 0.1% trifluoroacetic acid, and RC-101 was eluted with acetonitrile:water (60:40) in 0.1% trifluoroacetic acid.

[3] = UV spectroscopy for aggregation / ionic strength effect; type: physicochemical
Experimental: Changes in the secondary structure of the protein were monitored by Circular dichroism (CD) on an AVIV Circular Dichroism spectrophotometer model 202 (AVIV Biomedical, Lakewood, NJ) equipped with a 0.1 cm path length quartz cell. RC-101 stability was also monitored by using a matrix-assisted laser desorption ionization-time of flight (MALDI-TOF) mass spectrometric (MS) on a Voyager DE-PRO mass spectrometer (Applied Biosystems, Foster City, CA). Potential for aggregation was evaluated by UV-spectroscopy using a NanoDrop ND-1000 spectrophotometer (NanoDrop Technologies Inc, Wilmington, DE).

[4] = Effect of pH on stability of RC-101, HPLC; type: physicochemical; details: 500 μg/mL, HPLC-UV
Experimental: For all pre-formulation studies described below, triplicate solutions of RC-101 (500 μg/mL) were prepared in either water or aqueous buffer solution. Thermal degradation studies were conducted at 25, 37, and 65°C for a minimum period of 1 week. The effect of pH on the stability of RC-101 was evaluated over the pH range from 3 to 12 using 10 mM phosphate buffer solutions, at low (50 mmol/kg) and high (500 mmol/kg) ionic strength. Oxidation of RC-101 was evaluated by exposing a solution of RC-101 to hydrogen peroxide (H2O2) at concentrations of 3.0, 0.08, and 0.002% (v/v). The high H2O2 concentration (3.0%) was selected as a forced degradation concentration. […] Protection against oxidation was investigated by the addition of antioxidants commonly used in pharmaceutical products. The antioxidants used in this study were: methionine (95.2 μg/mL or 250 μg/mL), cysteine (95.2 μg/mL), glutathione (90.9 μg/mL), vitamin E TPGS (90.9 μg/mL), ascorbic acid (1.0 mg/mL), sodium ascorbate (1.0 mg/mL), and EDTA (1.0 μg/mL).
RC-101 concentration after exposure to preformulation conditions was analyzed by HPLC as previously described [11]. Briefly, the HPLC system (Waters Corporation, Milford, MA) was equipped with an autoinjector model 717, a quaternary pump model 600, and an ultraviolet (UV) detector model 2487 set up at 215 nm. Separation of RC-101 from degradant products was achieved using a Phenomenex Jupiter 5 μC5 300 Å (4.6 × 250 mm) column (Phenomenex, Torrance, CA) protected by a Widepore C5 (4 × 3.0 mm) guard cartridge (Phenomenex). The gradient consisted of mobile phase A (0.1% TFA in water (v/v)), and mobile phase B (0.07% TFA in acetonitrile (v/v)) pumped at a flow rate of 1.0 mL/min. Forced degraded samples (oxidation, temperature, and basic and acidic hydrolysis) were used to establish that the method could separate the degradants from the main peak.
HPLC data obtained from the preformulation studies were expressed as the average percentage of the peak area from time 0 ± standard deviation, n = 3. Results were analyzed by one-way analysis of variance (ANOVA) with multiple comparisons of individual time points by using post hoc Bonferroni correction to detect significant differences under different conditions. P-values ≤ 0.05 were considered to be statistically significant, unless specified otherwise.

With “GICRCICGKGICRCICGR (bicyclic or more) [RC-101, cationic retrocyclin analog; circular 18-residue tetracyclic peptide with three cysteine disulfide bonds]” the “time stable in 3 M urea” value [1] was “at least 24 h”, the “detection of RC-101 by LC-MS/MS” value ([2]; HVF BV+ pool 1:1, 37°C, 2 h) was “-” and the “detection of RC-101 by LC-MS/MS” value ([2]; HVF BV+ pool 1:1, 37°C, 6 h) was “-”. The “detection of RC-101 by LC-MS/MS” value ([2]; HVF BV+ pool 1:1, 37°C, 12 h) was “-”, the “detection of RC-101 by LC-MS/MS” value ([2]; HVF BV+ pool 1:1, 37°C, 24 h) was “-” and the “detection of RC-101 by LC-MS/MS” value ([2]; HVF BV+ pool 1:1, 37°C, 48 h) was “-”. For the same sequence, the “detection of RC-101 by LC-MS/MS” value ([2]; HVF BV+ pool (pH 5.8 ± 0.6, stored -80°C) 1:1, 37°C, 0 h) was “-”, the “detection of RC-101 in HVF BV+” value ([2]; HVF BV+ pool (stored -80°C), any time point studied, supernatant or cells, 37°C, LC-MS/MS) was “undetectable” and the “aggregation (increase in UV absorbance 300 to 600 nm)” value ([3]; 500 μg/mL, phosphate buffer pH 12, UV scan (data not shown)) was “presence of aggregates”. For the same sequence, the “stability profile with high ionic strength buffers” value ([3]; UV spectroscopy, pH 4 and 7, high ionic strength (500 mmol/kg) phosphate buffers) was “did not show any significant differences”, the “change in RC-101 concentration over time (HPLC)” value (“change in RC-101 concentration” for short) ([4]; pH 3, 10 mM phosphate buffer, 10 days, n = 3, p > 0.83) was “no statistically significant decrease” and the “change in RC-101 concentration” value ([4]; pH 4, 10 mM phosphate buffer, 10 days, n = 3, p > 0.83) was “no statistically significant decrease”. The “change in RC-101 concentration” value ([4]; pH 7, 10 mM phosphate buffer, 10 days, n = 3, p > 0.83) was “no statistically significant decrease” and the “change in RC-101 concentration” value ([4]; pH 12, 10 mM phosphate buffer, first 2 h, n = 3) was “significant decrease”.
